From US5468758A, “Crystalline forms of endo-2,3-dihydro-N-(8-methyl)-8-azabicyclo[3.2.1]oct-3-yl)-2-oxo-1H-benz imidazole-1-carboxamides” (Boehringer Ingelheim Italia S.p.A., priority 1992, dated 1995)
Structures can show the parent of a compound that is named as a salt. Where two headings read alike, the source gives them in different places.

Tests used:
Type in all cases: physicochemical
[1] = Long-term real time stability tests in tablets and capsules; details: tablets and capsules in PVC/PVDC blister with aluminium foil
Source text: (§1) Drug stability in these final compositions may be measured in accelerated stability tests or in long term real time stability tests. In accelerated stability tests, the above pharmaceutical compositions are exposed at high temperatures at different degrees of relative humidity for a period of time. Such tests are considered to be indicative of the stability of the composition at normal conditions. In long term real time stability studies the final compositions are exposed to normal conditions of storage at ambient temperatures at different degrees of relative humidity.
Tablets and capsules are packaged in PVC/PVDC blister with aluminium foil

[2] = Accelerated stability tests in tablets and capsules; details: tablets and capsules in PVC/PVDC blister with aluminium foil
Source text: as §1
(*)according to H. Leven Berger Pharm. Act. Helv. 50 (1975) 88-91 it is
equivalent to 2 years storage at room temperature. Tablets and capsules
are packaged in PVC/PVDC blister with aluminium foil.
(*)according to "Guidelines for stability studies for Human Drugs and
Biologics" (1987) (USA/FDA) it is equivalent to 2 years at room
temperature. Tablets and capsules are packaged in PVC/PVDC blister with […]

[3] = Moisture content during tablet manufacturing (mixing and tableting); details: for Moisture content: % on the weight of compound 1a
Source text: As a consequence, storage of compound 2a may be effected in normal conditions and no particular precautions are needed to avoid exposure to moisture. The titer of compound 2a, when it is stored in normal conditions, is therefore maintained at difference with compound 1a which, in the same conditions, may show different titles according to the water content. The hygroscopicity may also influence the drug title immediately after the manufacturing of tablets. In fact during the process of manufacturing the drug exposed at normal ambient conditions where it can take up moisture.

[4] = Milling studies (FRITSCH Pulverisette 14 Rotor Speed Mill)
Description: The milling process was performed by the FRITSCH Pulverisette 14 Rotor Speed Mill supplied with circular sieve stainless steel with trapezoidal 0.080 mm diameter openings. The samples were passed through the mill twice at 20.000 rpm motor speed. The sample is assayed for title and degradation products by TLC and HPLC, physical state by DSC, water content by TGA, particle size distribution by Mercury Instrusion Porosimetry. The mi 11ed compounds are formulated in capsules and tablets at very low dose level (0.5 mg) by direct mixing and direct compression manufacturing method, respectively.

[5] = Moisture sorption/desorption studies (hygrostat, storage at different temperatures and relative humidity); design: water content (Table VI): unit not given here; details: for moisture absorption: different temperatures and relative humidity, in words
Description: The determination of the sorption isotherms was carried out in a hygrostat.
At suitable intervals, the sample was weighed by means of a sample balance. The atmosphere in the hygrostat and therefore around the sample of compound 1a (1b) and 2a (2b) was conditioned and kept by a saturated solutions of a suitable salt:
Na Cl saturated solution 75.3% RH/25° C. 74.8% RH/37° C.
KNO3 saturated solution 93.7% RH/25° C. 90.0% RH/37° C.
At the end of the experiment, after completing the hysteresis, that is the adsorption--desorption cycle of humidity, the compound was assayed for the title and degradation products by TLC and HPLC, the physical state by DSC and water content by TGA.

Q: Which “% degradation” value ([1]; 3 months/40° C., 129600 min) does the source give for `CN1C2CCC1CC(NC(=O)n1c(=O)[nH]c3ccccc31)C2` (stereo not drawn) [Compound 1a, endo-2,3-dihydro-N-(8-methyl-8-azabicyclo[3.2.1]oct-3-yl)-2-oxo-1H-benzimidazole-1-carboxamide, reference compound] here?
A: The value was 0.6%.

Q: What about the “% degradation” value ([1]; 6 months/30° C.-70% RH, 259200 min) of the same compound?
A: Its value is 0.5%.

Q: What about the “% degradation” value ([1]; 6 months/40° C., 259200 min) of the same compound?
A: Its value is 1.1%.

Q: And the “% degradation” value ([2]; 1 month/55° C., 43200 min)?
A: The value was 2.0%.

Q: What about the degraded at 2160 h ([2]; tablets and capsules, 3 months/40° C.-75% RH, read-out: % degradation) of the same compound?
A: Its degraded at 2160 h is 0.8%.

Q: And the degraded at 2160 h ([2]; tablets and capsules, 3 months/55° C., read-out: % degradation)?
A: Its degraded at 2160 h is 3.2%.

Q: And the degraded at 4320 h ([2]; tablets and capsules, 6 months/40° C.-75% RH, read-out: % degradation)?
A: The degraded at 4320 h was 1.7%.

Q: What about the Moisture content ([3]; Final (b), tableting) of the same compound?
A: The Moisture content was 1.02%.

Q: What about the Moisture content ([3]; Intermediate (a), mixing) of the same compound?
A: The Moisture content was 0.66%.

Q: What about the Moisture content ([3]; Start) of the same compound?
A: Its Moisture content is 0.62%.

Q: What about the “water content during manufacturing” value ([3]; mixing (a) and tableting (b) phases, in words) of the same compound?
A: Its value is “increases its water content”.

Q: What about the “particle size reduction (milling efficiency)” value ([4]; Mercury Porosimetry Analysis, in words) of the same compound?
A: The value was “same rank order”.

Q: What about the “percentage of degradation products after milling” value ([4]; rotor speed of 20,000 rpm) of the same compound?
A: The value was 0.65%.

Q: What about the water content (Table III) ([5]; 37° C., 75% RH, 2 h) of the same compound?
A: The water content (Table III) was 0.34%.

Q: What about the water content (Table III) ([5]; 37° C., 75% RH, 4 h) of the same compound?
A: The water content (Table III) was 0.39%.

Q: And the water content (Table III) ([5]; 37° C., 75% RH, 6 h)?
A: Its water content (Table III) is 0.59%.

Q: What about the water content (Table III) ([5]; 37° C., 75% RH, 1 d) of the same compound?
A: The water content (Table III) was 1.95%.

Q: What about the water content (Table III) ([5]; 37° C., 75% RH, 5 d) of the same compound?
A: The water content (Table III) was 5.09%.

Q: And the water content (Table III) ([5]; 37° C., 75% RH, 9 d)?
A: The water content (Table III) was 5.13%.

Q: And the water content (Table III) ([5]; 37° C., 75% RH, 15 d)?
A: Its water content (Table III) is 5.13%.

Q: What about the water content (Table III) ([5]; 37° C., 94% RH, 2 h) of the same compound?
A: The water content (Table III) was 1.93%.

Q: And the water content (Table III) ([5]; 37° C., 94% RH, 4 h)?
A: Its water content (Table III) is 3.41%.

Q: What about the water content (Table III) ([5]; 37° C., 94% RH, 6 h) of the same compound?
A: Its water content (Table III) is 4.68%.

Q: What about the water content (Table III) ([5]; 37° C., 94% RH, 1 d) of the same compound?
A: Its water content (Table III) is 5.04%.

Q: And the water content (Table III) ([5]; 37° C., 94% RH, 5 d)?
A: The water content (Table III) was 5.06%.

Q: And the water content (Table III) ([5]; 37° C., 94% RH, 9 d)?
A: The water content (Table III) was 5.06%.

Q: What about the water content (Table III) ([5]; 37° C., 94% RH, 15 d) of the same compound?
A: Its water content (Table III) is 5.04%.

Q: What about the water content (Table III) ([5]; Room Temperature, 75% RH, 2 h) of the same compound?
A: The water content (Table III) was 0.68%.

Q: And the water content (Table III) ([5]; Room Temperature, 75% RH, 4 h)?
A: Its water content (Table III) is 0.74%.

Q: What about the water content (Table III) ([5]; Room Temperature, 75% RH, 6 h) of the same compound?
A: The water content (Table III) was 0.78%.

Q: What about the water content (Table III) ([5]; Room Temperature, 75% RH, 1 d) of the same compound?
A: Its water content (Table III) is 1.25%.

Q: And the water content (Table III) ([5]; Room Temperature, 75% RH, 4 d)?
A: The water content (Table III) was 2.54%.

Q: And the water content (Table III) ([5]; Room Temperature, 75% RH, 8 d)?
A: The water content (Table III) was 3.5%.

Q: And the water content (Table III) ([5]; Room Temperature, 75% RH, 20 d)?
A: Its water content (Table III) is 4.59%.

Q: And the water content (Table III) ([5]; Room Temperature, 75% RH, 40 d)?
A: The water content (Table III) was 4.95%.

Q: And the water content (Table III) ([5]; Room Temperature, 94% RH, 2 h)?
A: The water content (Table III) was 1.28%.

Q: What about the water content (Table III) ([5]; Room Temperature, 94% RH, 4 h) of the same compound?
A: The water content (Table III) was 1.92%.

Q: And the water content (Table III) ([5]; Room Temperature, 94% RH, 6 h)?
A: Its water content (Table III) is 2.41%.

Q: And the water content (Table III) ([5]; Room Temperature, 94% RH, 1 d)?
A: The water content (Table III) was 5.33%.

Q: What about the water content (Table III) ([5]; Room Temperature, 94% RH, 4 d) of the same compound?
A: Its water content (Table III) is 5.39%.

Q: What about the water content (Table III) ([5]; Room Temperature, 94% RH, 8 d) of the same compound?
A: Its water content (Table III) is 5.39%.

Q: What about the water content (Table III) ([5]; Room Temperature, 94% RH, 20 d) of the same compound?
A: The water content (Table III) was 5.4%.

Q: And the water content (Table III) ([5]; Room Temperature, 94% RH, 40 d)?
A: The water content (Table III) was 5.42%.

Q: And the moisture absorption [5]?
A: The moisture absorption was “marked tendency to moisture absorption”.

Q: With `CCn1c(=O)n(C(=O)N[C@H]2C[C@H]3CC[C@@H](C2)N3C)c2ccccc21` [Compound 1b, endo-3-ethyl-2,3-dihydro-N-(8-methyl-8-azabicyclo-[3.2.1]oct-3-yl)-2-oxo-1H-benzimidazole-1-carboxamide hydrochloride, reference compound] as the compound, how does the humidity content ([4]; after milling, hydrochloride) read?
A: Its humidity content is 2.32%.

Q: What about the humidity content ([4]; before milling) of the same compound?
A: Its humidity content is 0.87%.

Q: What about the “water content (Table VI)” value ([5]; 37° C., 49.2% RH, 2 h, hydrochloride) of the same compound?
A: The value was 2.18.

Q: What about the “water content (Table VI)” value ([5]; 37° C., 49.2% RH, 4 h, hydrochloride) of the same compound?
A: Its value is 2.58.

Q: What about the “water content (Table VI)” value ([5]; 37° C., 49.2% RH, 6 h, hydrochloride) of the same compound?
A: The value was 3.01.

Q: What about the “water content (Table VI)” value ([5]; 37° C., 49.2% RH, 1 d, hydrochloride) of the same compound?
A: The value was 4.07.

Q: What about the “water content (Table VI)” value ([5]; 37° C., 49.2% RH, 4 d, hydrochloride) of the same compound?
A: Its value is 4.81.

Q: What about the “water content (Table VI)” value ([5]; 37° C., 49.2% RH, 10 d, hydrochloride) of the same compound?
A: Its value is 4.82.

Q: What about the “water content (Table VI)” value ([5]; 37° C., 49.2% RH, 30 d, hydrochloride) of the same compound?
A: Its value is 4.81.

Q: What about the “water content (Table VI)” value ([5]; 37° C., 49.2% RH, time 0, hydrochloride) of the same compound?
A: Its value is 1.13.

Q: And the “water content (Table VI)” value ([5]; 37° C., 74.8% RH, 2 h, hydrochloride)?
A: Its value is 4.99.

Q: What about the “water content (Table VI)” value ([5]; 37° C., 74.8% RH, 4 h, hydrochloride) of the same compound?
A: Its value is 4.93.

Q: And the “water content (Table VI)” value ([5]; 37° C., 74.8% RH, 6 h, hydrochloride)?
A: The value was 4.97.

Q: What about the “water content (Table VI)” value ([5]; 37° C., 74.8% RH, 1 d, hydrochloride) of the same compound?
A: The value was 4.90.

Q: What about the “water content (Table VI)” value ([5]; 37° C., 74.8% RH, 4 d, hydrochloride) of the same compound?
A: Its value is 4.92.

Q: And the “water content (Table VI)” value ([5]; 37° C., 74.8% RH, 10 d, hydrochloride)?
A: Its value is 4.85.

Q: And the “water content (Table VI)” value ([5]; 37° C., 74.8% RH, 30 d, hydrochloride)?
A: The value was 4.81.

Q: And the “water content (Table VI)” value ([5]; 37° C., 74.8% RH, time 0, hydrochloride)?
A: Its value is 1.13.

Q: What about the moisture absorption ([5]; hydrochloride) of the same compound?
A: Its moisture absorption is “marked tendency to moisture absorption”.
